The source made the active and inactive calls.
Legend:
[1] = target: Ubiquitin carboxyl-terminal hydrolase BAP1 (Homo sapiens, UniProt Q92560); assay: inhibition of BAP1 ubiquitin hydrolase activity – biochemical, dose response (AID 714); assay type: functional
[2] = target: T1, Mannose-6-phosphate isomerase (Homo sapiens, UniProt P34949); assay: MPI inhibition at elevated mannose 6-phosphate – biochemical, fluorescence intensity, high mannose 6-phosphate, primary screen (AID 1220)
T1 sequence (P34949 whole entry): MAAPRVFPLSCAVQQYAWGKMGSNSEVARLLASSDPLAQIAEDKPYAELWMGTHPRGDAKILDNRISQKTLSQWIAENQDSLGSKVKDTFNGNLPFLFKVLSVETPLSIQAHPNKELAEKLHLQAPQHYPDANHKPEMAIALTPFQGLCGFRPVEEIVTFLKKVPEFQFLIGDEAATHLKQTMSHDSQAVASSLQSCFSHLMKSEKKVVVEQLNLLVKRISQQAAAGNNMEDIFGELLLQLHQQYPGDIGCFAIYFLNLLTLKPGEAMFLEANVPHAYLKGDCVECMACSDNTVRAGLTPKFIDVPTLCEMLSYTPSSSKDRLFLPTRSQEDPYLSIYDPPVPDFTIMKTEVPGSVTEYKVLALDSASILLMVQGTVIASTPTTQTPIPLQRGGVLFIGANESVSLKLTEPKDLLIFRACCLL

[3] = target: T1, Mannose-6-phosphate isomerase; assay: MPI enzyme activity inhibition – biochemical, fluorescence intensity, coupled assay, primary screen (AID 1209)
Large T antigen = Large T antigen (Simian virus 40, UniProt P03070); assay type: functional, Betapolyomavirus macacae;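 also: Confirmatory-stage PubChem screen for compounds that inhibit SV40 T antigen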
Large T antigen, sequence (P03070 whole entry): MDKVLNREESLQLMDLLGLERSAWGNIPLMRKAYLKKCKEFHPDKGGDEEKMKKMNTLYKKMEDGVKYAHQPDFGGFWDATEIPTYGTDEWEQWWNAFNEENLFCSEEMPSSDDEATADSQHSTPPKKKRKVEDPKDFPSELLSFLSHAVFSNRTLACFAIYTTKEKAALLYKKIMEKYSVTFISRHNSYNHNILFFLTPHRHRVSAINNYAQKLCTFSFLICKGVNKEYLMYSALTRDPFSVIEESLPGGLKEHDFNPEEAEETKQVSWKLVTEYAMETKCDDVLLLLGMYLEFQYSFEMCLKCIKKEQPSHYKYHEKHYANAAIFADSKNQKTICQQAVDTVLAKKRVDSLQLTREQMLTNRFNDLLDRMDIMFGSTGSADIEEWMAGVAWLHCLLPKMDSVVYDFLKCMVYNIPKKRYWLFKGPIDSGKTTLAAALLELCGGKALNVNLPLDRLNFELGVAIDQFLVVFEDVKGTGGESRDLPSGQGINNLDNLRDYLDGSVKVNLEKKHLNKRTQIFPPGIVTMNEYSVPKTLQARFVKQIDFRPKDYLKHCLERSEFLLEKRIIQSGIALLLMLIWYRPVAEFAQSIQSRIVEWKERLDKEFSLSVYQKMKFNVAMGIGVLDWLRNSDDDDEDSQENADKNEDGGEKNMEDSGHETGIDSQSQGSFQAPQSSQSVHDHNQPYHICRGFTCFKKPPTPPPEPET

[4] = target: FAD-linked sulfhydryl oxidase ALR (Homo sapiens, UniProt P55789); assay: ALR-catalysed DTT oxidation blockers – biochemical, H2O2 detection, luminescence, cherry-pick, dose response (AID 493248)
FAD-linked sulfhydryl oxidase ALR, sequence (P55789 whole entry): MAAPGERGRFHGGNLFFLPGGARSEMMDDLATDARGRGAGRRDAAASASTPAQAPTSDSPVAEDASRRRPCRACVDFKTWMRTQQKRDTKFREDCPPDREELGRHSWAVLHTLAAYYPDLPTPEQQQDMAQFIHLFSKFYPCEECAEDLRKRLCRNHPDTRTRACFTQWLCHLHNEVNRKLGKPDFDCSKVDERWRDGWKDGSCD

[5] = target: Sphingosine 1-phosphate receptor 2 (Homo sapiens, UniProt O95136); assay: Dose Response Cell Based Assay for Agonists of the S1P2 Receptor of Purchased Analogues. [Related pubchem assays: 729, 843, 854, 736 ]; assay type: functional
Sphingosine 1-phosphate receptor 2, sequence (O95136 whole entry): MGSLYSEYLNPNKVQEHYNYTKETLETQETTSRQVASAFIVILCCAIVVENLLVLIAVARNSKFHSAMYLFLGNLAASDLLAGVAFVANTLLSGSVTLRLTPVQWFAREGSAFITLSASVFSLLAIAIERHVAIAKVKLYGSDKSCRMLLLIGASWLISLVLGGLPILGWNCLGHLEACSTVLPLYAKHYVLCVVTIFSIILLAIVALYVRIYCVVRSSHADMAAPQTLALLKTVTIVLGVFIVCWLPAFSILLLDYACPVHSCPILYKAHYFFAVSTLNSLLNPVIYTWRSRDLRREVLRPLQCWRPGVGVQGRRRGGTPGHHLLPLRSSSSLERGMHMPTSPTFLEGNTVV

[6] = target: Inward rectifier potassium channel 2 (Mus musculus, UniProt P35561); assay: Manual electrophysiological patch clamp assay for SAR compounds that inhibit/block inward-rectifying potassium ion channel Kir2.1. [Related pubchem assays: 1843 (Summary assay for Kir2.1 inhibitor assays.), 1672 (Primary HTS of 305616 compounds where 2592 were identified as active.)]; assay type: functional
Inward rectifier potassium channel 2, sequence (P35561 whole entry): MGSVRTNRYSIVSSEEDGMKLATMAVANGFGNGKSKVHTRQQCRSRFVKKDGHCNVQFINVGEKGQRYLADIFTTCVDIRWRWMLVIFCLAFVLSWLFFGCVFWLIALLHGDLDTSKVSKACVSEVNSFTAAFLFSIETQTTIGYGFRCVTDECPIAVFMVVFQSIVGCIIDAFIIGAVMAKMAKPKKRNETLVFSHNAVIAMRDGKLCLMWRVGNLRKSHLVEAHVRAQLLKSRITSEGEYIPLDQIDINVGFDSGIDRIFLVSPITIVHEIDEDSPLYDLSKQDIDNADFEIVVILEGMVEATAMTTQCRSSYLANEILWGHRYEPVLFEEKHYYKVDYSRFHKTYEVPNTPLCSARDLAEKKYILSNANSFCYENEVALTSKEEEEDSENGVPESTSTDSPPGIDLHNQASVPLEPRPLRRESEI

[7] = target: T2, Oxysterols receptor LXR-beta (Homo sapiens, UniProt P55055); assay type: functional, cell-based
T2 sequence (P55055 whole entry): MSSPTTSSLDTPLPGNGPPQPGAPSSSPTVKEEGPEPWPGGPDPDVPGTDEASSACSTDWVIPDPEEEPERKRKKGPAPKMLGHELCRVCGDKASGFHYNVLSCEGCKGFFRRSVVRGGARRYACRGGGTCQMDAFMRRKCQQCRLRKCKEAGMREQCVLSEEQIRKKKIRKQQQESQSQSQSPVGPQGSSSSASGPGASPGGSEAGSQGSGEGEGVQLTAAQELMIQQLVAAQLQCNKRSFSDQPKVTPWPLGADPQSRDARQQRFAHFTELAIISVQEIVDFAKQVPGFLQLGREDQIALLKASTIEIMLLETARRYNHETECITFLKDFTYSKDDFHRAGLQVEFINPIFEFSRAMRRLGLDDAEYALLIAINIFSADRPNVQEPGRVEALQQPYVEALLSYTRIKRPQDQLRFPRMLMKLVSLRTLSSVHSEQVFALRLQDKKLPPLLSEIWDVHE

[8] = rise of 4N DNA cells, HeLa – IC50, dose response (AID 1117351); assay type: functional, cell-based
[9] = rise of 2N DNA cells, HeLa – IC50, dose response (AID 1117349); assay type: functional, cell-based
[10] = target: T2, Oxysterols receptor LXR-beta; assay type: functional, cell-based; remark: listed apart in the source
[11] = mitochondrial function rescue without frataxin homolog – Friedreich's ataxia, plus single-dose screen, dose response (AID 1465); assay type: functional;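 also: yeast depleted of Yfh1p frataxin homolog grown on glycerol needing respiration; WST-1 tetrazolium dye reduction as measure of cellular dehydrogenase metabolic activity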
Albumin = Albumin (Bos taurus, UniProt P02769); assay: Counterscreen for inhibitors of T-cell receptor (TCR)-CD3 interaction: Fluorescence-based biochemical high throughput dose response assay to identify inhibitors of T-cell receptor (TCR)-CD3 interaction using a TAMRA-labeled BSA probe.; assay type: functional
Albumin, sequence (P02769 whole entry): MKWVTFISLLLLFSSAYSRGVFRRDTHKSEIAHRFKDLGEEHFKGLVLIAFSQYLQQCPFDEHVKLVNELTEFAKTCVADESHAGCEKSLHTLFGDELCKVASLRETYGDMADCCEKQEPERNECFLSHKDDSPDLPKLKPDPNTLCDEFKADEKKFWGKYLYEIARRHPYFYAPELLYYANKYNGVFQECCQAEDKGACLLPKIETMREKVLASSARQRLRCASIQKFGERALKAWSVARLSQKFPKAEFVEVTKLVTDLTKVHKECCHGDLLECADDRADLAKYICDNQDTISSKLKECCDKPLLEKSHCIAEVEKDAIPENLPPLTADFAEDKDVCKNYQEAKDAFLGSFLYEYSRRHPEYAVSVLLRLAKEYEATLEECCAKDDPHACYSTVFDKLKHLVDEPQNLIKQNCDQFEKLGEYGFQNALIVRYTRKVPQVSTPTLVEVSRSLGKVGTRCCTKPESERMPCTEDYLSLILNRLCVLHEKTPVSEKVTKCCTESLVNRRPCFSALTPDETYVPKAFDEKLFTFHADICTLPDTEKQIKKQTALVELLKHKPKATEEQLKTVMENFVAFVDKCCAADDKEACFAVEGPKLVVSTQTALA

Bcl-2-like protein 1 = Bcl-2-like protein 1 (Homo sapiens, UniProt Q07817); assay: blockers of BCLXL peptide binding – biochemical, fluorescence polarization, 1536-well, selectivity assay for MCL1 inhibitor project, dose response (AID 2218)
Bcl-2-like protein 1, sequence (Q07817 whole entry): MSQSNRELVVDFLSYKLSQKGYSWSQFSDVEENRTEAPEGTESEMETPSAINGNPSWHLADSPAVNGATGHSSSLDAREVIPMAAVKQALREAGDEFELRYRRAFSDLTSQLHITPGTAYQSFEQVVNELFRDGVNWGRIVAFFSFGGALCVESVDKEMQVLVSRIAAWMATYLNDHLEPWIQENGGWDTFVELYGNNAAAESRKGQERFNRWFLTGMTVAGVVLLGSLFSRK

[12] = target: Induced myeloid leukemia cell differentiation protein Mcl-1 (Homo sapiens, UniProt Q07820); assay: blockers of MCL1 binding to BIM peptide – biochemical, fluorescence polarization, BIM-BH3 peptide, 1536-well, dose response (AID 2217)
Induced myeloid leukemia cell differentiation protein Mcl-1, sequence (Q07820 whole entry): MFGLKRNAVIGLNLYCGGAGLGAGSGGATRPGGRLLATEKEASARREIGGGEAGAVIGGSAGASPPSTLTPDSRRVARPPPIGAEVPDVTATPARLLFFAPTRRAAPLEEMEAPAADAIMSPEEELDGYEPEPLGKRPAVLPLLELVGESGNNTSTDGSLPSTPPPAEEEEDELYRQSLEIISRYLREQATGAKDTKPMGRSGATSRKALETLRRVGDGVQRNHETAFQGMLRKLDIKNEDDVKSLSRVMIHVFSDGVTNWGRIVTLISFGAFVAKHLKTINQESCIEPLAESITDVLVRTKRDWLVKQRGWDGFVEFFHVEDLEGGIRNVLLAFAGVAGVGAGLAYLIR

[13] = target: T3, Endoribonuclease toxin MazF (Escherichia coli K-12, UniProt P0AE70); assay: activation of MazEF endoribonuclease cleavage – biochemical, fluorescence, single-stranded RNA substrate, uHTS hits, dose response (AID 588481); assay type: functional
T3 sequence (P0AE70 whole entry): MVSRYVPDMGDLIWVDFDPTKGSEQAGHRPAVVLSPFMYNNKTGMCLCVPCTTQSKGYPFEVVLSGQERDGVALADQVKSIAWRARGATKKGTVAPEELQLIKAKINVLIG

[14] = target: T3, Endoribonuclease toxin MazF; assay: substrate-only fluorescence increase artefacts – biochemical, single-stranded RNase substrate, counter-screen for MazEF activator project, dose response (AID 588502); assay type: functional

Ubiquitin carboxyl-terminal hydrolase BAP1, sequence (Q92560 whole entry): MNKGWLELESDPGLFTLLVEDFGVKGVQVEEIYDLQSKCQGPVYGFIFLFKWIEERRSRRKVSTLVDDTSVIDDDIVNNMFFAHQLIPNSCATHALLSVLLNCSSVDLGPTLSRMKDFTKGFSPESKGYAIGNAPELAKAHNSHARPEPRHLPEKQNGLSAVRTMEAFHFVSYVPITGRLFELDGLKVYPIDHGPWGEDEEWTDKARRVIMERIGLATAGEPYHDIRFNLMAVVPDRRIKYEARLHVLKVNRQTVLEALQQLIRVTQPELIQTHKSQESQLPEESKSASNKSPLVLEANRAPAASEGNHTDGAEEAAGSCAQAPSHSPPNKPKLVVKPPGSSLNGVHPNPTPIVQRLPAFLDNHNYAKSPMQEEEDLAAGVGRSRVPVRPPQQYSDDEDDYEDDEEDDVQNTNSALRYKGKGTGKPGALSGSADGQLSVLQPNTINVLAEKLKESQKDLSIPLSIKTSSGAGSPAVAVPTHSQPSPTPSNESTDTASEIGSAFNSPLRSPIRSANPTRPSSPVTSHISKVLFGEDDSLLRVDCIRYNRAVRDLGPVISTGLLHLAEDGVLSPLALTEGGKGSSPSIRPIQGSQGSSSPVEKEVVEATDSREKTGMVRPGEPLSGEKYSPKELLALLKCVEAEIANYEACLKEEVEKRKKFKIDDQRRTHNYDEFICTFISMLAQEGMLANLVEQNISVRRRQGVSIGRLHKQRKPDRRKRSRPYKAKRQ

## O=C(CSc1nc2c(c(=O)n1-c1ccc(Cl)cc1)SCC2)Nc1ccc2c(c1)OCCO2
[1]
  IC50: 38.6 µM (not active)

## CCn1c(=O)n(CC)c2cc(N)ccc21
[2]
  IC50: > 50 µM (not active)
[3]
  IC50: > 50 µM (not active)
Large T antigen
  IC50: 14 µM (active)
[4]
  AC50: 0.754 µM (active)

## Cc1cc(C(=O)CN(C)CC(=O)NC(C)(C)C)c(C)n1Cc1ccccc1
[5]
  EC50: > 30 µM (not active)

## COc1ccc(CNCc2cccc(Cl)c2)cc1
[6]
  IC50: 1.12 µM (active)

## O=c1[nH]c(=O)n([C@H]2C[C@H](O)[C@@H](CO)O2)cc1Br [BROXURIDINE]
[7]
  EC50: > 67.5 µM (inactive)
cells
  EC50: > 67.5 µM (inactive)
[8]
  IC50: > 10 µM (inactive)
[9]
  IC50: > 10 µM (inactive)
[10]
  EC50: > 67.6 µM (inactive)

## COc1ccc(C2(c3ccc(O)cc3O)CC(c3ccccc3Cl)N=C(S)N2)cc1 (stereo not drawn)
[11]
  EC50: > 100 µM (active)

## O=c1cc(-c2ccc(O)c(O)c2)oc2c1ccc1ccccc12
Albumin
  IC50: > 94.1 µM (inactive)
Bcl-2-like protein 1
  IC50: > 109 µM (not active)
[12]
  IC50: 23.8 µM (not active)
[13]
  EC50: > 99 µM (inactive)
[14]
  EC50: > 99 µM (inactive)
